Laboratory results as given in patent publication US12643871B2, “Aryl formamide compound containing chiral sulfur oxide or salt thereof, preparation method, herbicidal composition and use thereof” (Qingdao Kingagroot Chemical Compound Co., Ltd., priority 2019, dated 2026).

Key:
Test in all cases: Weeding effect in post-emergence stage
Type in all cases: in vivo
Settings in all cases: 250 g/ha; 2 leaf stage; 15 days after application; fresh weight control rate
[1] = tested on: Setaria viridis
Outline: (§1)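 Greenhouse pot-grown weeds were sprayed at the 2-leaf stage, 2 weeks after sowing, with compound in acetone/Tween 80 plus 1.5 L/ha methyl oleate EC, at 500, 250, 125, 60, 30 or 15 g/ha. Fresh-weight growth control was scored 15 days later on a 0–5 scale, mean of three repeats.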

[2] = tested on: Echinochloa crusgali
Outline: as §1

[3] = tested on: Abutilon theophrasti
Outline: as §1

[4] = tested on: Amaranthus retroflexus
Outline: as §1

[5] = tested on: Digitaria sanguinalis
Outline: as §1

SMILES	weeding effect in post-emergence stage, activity level (growth control rate), Setaria viridis [1]	weeding effect in post-emergence stage, activity level (growth control rate), Echinochloa crusgali [2]	weeding effect in post-emergence stage, activity level (growth control rate), Abutilon theophrasti [3]	weeding effect in post-emergence stage, activity level (growth control rate), Amaranthus retroflexus [4]	weeding effect in post-emergence stage, activity level (growth control rate), Digitaria sanguinalis [5]
CC[S+]([O-])c1c(C(F)(F)F)ccc(C(=O)N(c2nnc(C)o2)C(C)OC(=O)OC)c1OC (mixture of isomers) [Compound 421]	5 (Level 5: growth control rate is above 85%)	5 (Level 5: growth control rate is above 85%)	5 (Level 5: growth control rate is above 85%)	5 (Level 5: growth control rate is above 85%)	5 (Level 5: growth control rate is above 85%)
CCOC(=O)OC(C)N(C(=O)c1ccc(C(F)(F)F)c([S+]([O-])CC)c1OC)c1nnc(C)o1 (mixture of isomers) [Compound 422]	5 (Level 5: growth control rate is above 85%)	5 (Level 5: growth control rate is above 85%)	5 (Level 5: growth control rate is above 85%)	5 (Level 5: growth control rate is above 85%)	5 (Level 5: growth control rate is above 85%)
CCC(C)[S@@+]([O-])c1c(C(F)(F)F)ccc(C(=O)Nc2nnc(C)o2)c1F (stereo partly shown) [Compound 5]	5 (Level 5: growth control rate is above 85%)	5 (Level 5: growth control rate is above 85%)	5 (Level 5: growth control rate is above 85%)	5 (Level 5: growth control rate is above 85%)	5 (Level 5: growth control rate is above 85%)
Cc1nnc(NC(=O)c2ccc(C(F)(F)F)c([S@+]([O-])C(C)(C)C)c2F)o1 [Compound 7]	4 (Level 4: growth control rate is greater than or equal to 60% and less than 85%)	5 (Level 5: growth control rate is above 85%)	5 (Level 5: growth control rate is above 85%)	5 (Level 5: growth control rate is above 85%)	4 (Level 4: growth control rate is greater than or equal to 60% and less than 85%)
Cc1nnc(NC(=O)c2ccc(C(F)(F)F)c([S@+]([O-])CCC(C)C)c2F)o1 [Compound 9]	5 (Level 5: growth control rate is above 85%)	5 (Level 5: growth control rate is above 85%)	5 (Level 5: growth control rate is above 85%)	5 (Level 5: growth control rate is above 85%)	5 (Level 5: growth control rate is above 85%)
CCC(C)C[S@@+]([O-])c1c(C(F)(F)F)ccc(C(=O)Nc2nnc(C)o2)c1F (stereo partly shown) [Compound 10]	5 (Level 5: growth control rate is above 85%)	5 (Level 5: growth control rate is above 85%)	5 (Level 5: growth control rate is above 85%)	5 (Level 5: growth control rate is above 85%)	5 (Level 5: growth control rate is above 85%)
Cc1nnc(NC(=O)c2ccc(C(F)(F)F)c([S@+]([O-])CC(C)(C)C)c2F)o1 [Compound 11]	5 (Level 5: growth control rate is above 85%)	5 (Level 5: growth control rate is above 85%)	5 (Level 5: growth control rate is above 85%)	5 (Level 5: growth control rate is above 85%)	5 (Level 5: growth control rate is above 85%)
CCCCCC[S@@+]([O-])c1c(C(F)(F)F)ccc(C(=O)Nc2nnc(C)o2)c1F [Compound 12]	3 (Level 3: growth control rate is greater than or equal to 40% and less than 60%)	5 (Level 5: growth control rate is above 85%)	5 (Level 5: growth control rate is above 85%)	5 (Level 5: growth control rate is above 85%)	3 (Level 3: growth control rate is greater than or equal to 40% and less than 60%)
CC=CC[S+]([O-])c1c(C(F)(F)F)ccc(C(=O)Nc2nnc(C)o2)c1F (stereo not shown) [Compound 21]	5 (Level 5: growth control rate is above 85%)	5 (Level 5: growth control rate is above 85%)	5 (Level 5: growth control rate is above 85%)	5 (Level 5: growth control rate is above 85%)	5 (Level 5: growth control rate is above 85%)
C#CCC[S@@+]([O-])c1c(C(F)(F)F)ccc(C(=O)Nc2nnc(C)o2)c1F [Compound 24]	5 (Level 5: growth control rate is above 85%)	5 (Level 5: growth control rate is above 85%)	5 (Level 5: growth control rate is above 85%)	5 (Level 5: growth control rate is above 85%)	5 (Level 5: growth control rate is above 85%)
CC#CC[S@@+]([O-])c1c(C(F)(F)F)ccc(C(=O)Nc2nnc(C)o2)c1F [Compound 25]	5 (Level 5: growth control rate is above 85%)	5 (Level 5: growth control rate is above 85%)	5 (Level 5: growth control rate is above 85%)	5 (Level 5: growth control rate is above 85%)	5 (Level 5: growth control rate is above 85%)
Cc1nnc(NC(=O)c2ccc(C(F)(F)F)c([S@+]([O-])CC(C)F)c2F)o1 (stereo partly shown) [Compound 27]	5 (Level 5: growth control rate is above 85%)	5 (Level 5: growth control rate is above 85%)	5 (Level 5: growth control rate is above 85%)	5 (Level 5: growth control rate is above 85%)	5 (Level 5: growth control rate is above 85%)
Cc1nnc(NC(=O)c2ccc(C(F)(F)F)c([S@+]([O-])CCC(F)F)c2F)o1 [Compound 28]	5 (Level 5: growth control rate is above 85%)	5 (Level 5: growth control rate is above 85%)	5 (Level 5: growth control rate is above 85%)	5 (Level 5: growth control rate is above 85%)	5 (Level 5: growth control rate is above 85%)
Cc1nnc(NC(=O)c2ccc(C(F)(F)F)c([S@+]([O-])CC(C)(F)F)c2F)o1 [Compound 29]	5 (Level 5: growth control rate is above 85%)	5 (Level 5: growth control rate is above 85%)	5 (Level 5: growth control rate is above 85%)	5 (Level 5: growth control rate is above 85%)	5 (Level 5: growth control rate is above 85%)
Cc1nnc(NC(=O)c2ccc(C(F)(F)F)c([S@+]([O-])C(F)(F)F)c2F)o1 [Compound 30]	5 (Level 5: growth control rate is above 85%)	5 (Level 5: growth control rate is above 85%)	5 (Level 5: growth control rate is above 85%)	5 (Level 5: growth control rate is above 85%)	5 (Level 5: growth control rate is above 85%)
CCC[S@@+]([O-])c1c(C(F)(F)F)ccc(C(=O)Nc2nnc(C)o2)c1SCOC [Compound 573]	–	5 (Level 5: growth control rate is above 85%)	5 (Level 5: growth control rate is above 85%)	5 (Level 5: growth control rate is above 85%)	5 (Level 5: growth control rate is above 85%)
